Reference: US6455587B1 (priority 2000, dated 2002)

Target: T1, recombinant HIV-1 protease (Human immunodeficiency virus type 1 group M subtype B, UniProt P04585)
T1 construct: recombinant HIV-1 protease (final concentration 2.18 nM) purchased from Bachem Bioscience; purchased Bachem Bioscience
Experiment: Enzymatic fluorometric (FRET) assay for determining the inhibition constant (Ki) against HIV protease
Type: biochemical
Conditions: Ki (nM)
Text: An Enzymatic assay for determining the inhibition constant (Ki) of synthetic compounds targeting the HIV protease may be carried out as follows: This is a fluorometric assay based on the cleavage by protease of a substrate carrying a donor group (EDANS) and an acceptor group (DABCYL) on each side of the cleavage site, interacting together through fluorescence resonance energy transfer (FRET). Cleavage of the substrate by protease stops energy exchange between the two groups, resulting in a time-dependent increase in fluorescence intensity that is linearly related to the extent of substrate hydrolysis.
The enzymatic assay is done at 31° C. in white 96-well fluorescence microplates, in a total volume of 200 μL per well. The apparatus used for analysis is a FL600 fluorescence microplate reader (Biotek Instruments). […] Excitation of the fluorophore is done at 340 nm and emission at 485 nm is recorded continuously during the reaction, allowing determination of the enzyme's initial velocity (v0). At the end of the 4 min incubation, the potential inhibitor at a defined concentration in a volume of 4 μL is added to the reaction, and fluorescence readings are taken for another 4 min, allowing determination of enzyme velocity (vi) in the presence of the inhibitory compound. Several concentrations of the putative inhibitors are tested in the assay. After calculation of v0 and vi, the inhibition constant (Ki) of the compound is determined using the equation of Henderson: [formula]
and [I]=inhibitor concentration, [S]=substrate concentration,
Km=Michaelis-Menten constant, Kiapp=apparent Ki
Graphs are traced and the Ki determined using GraphPad Prism software v. 3.0.

Structure (SMILES)	Ki [nM]
Cc1ccc(S(=O)(=O)N(CC2CC2)[C@@H](CCCCNC(=O)OCC2c3ccccc3-c3ccccc32)C(=O)O)cc1 [Compound 43, Nα-Cyclopropylmethyl-Nα-(4-methylbenzenesulfonyl)-Nε-(9-fluorenylmethoxycarbonyl)-L-lysine]	3.9

Same assay, conditions: fluorometric FRET assay, recombinant HIV-1 protease, pH 4.7, 31° C.; read-out: Ki

Structure (SMILES)	Ki [nM]
O=C(N[C@@H](CCCCNS(=O)(=O)c1ccc(Br)cc1)C(=O)O)OCC1c2ccccc2-c2ccccc21 [Compound 16, Nε-(4-Bromobenzenesulfonyl)-Nα-(9-fluorenylmethoxycarbonyl)-L-lysine]	13000
O=C(O)[C@H](CCCCNS(=O)(=O)c1ccc(Br)cc1)NS(=O)(=O)c1ccc(Br)cc1 [Compound 17, Nα,Nε-di-(4-Bromobenzenesulfonyl)-L-lysine]	7700
O=C(N[C@@H](CNS(=O)(=O)c1ccc(Br)cc1)C(=O)O)OCC1c2ccccc2-c2ccccc21 [Compound 18, (S)-2-(9-Fluorenylmethoxycarbonylamino)-3-(4-bromobenzenesulfonylamino)-propanoic Acid]	75000
NC(=O)C(CCCCNS(=O)(=O)c1ccc(Br)cc1)NC(=O)OCC1c2ccccc2-c2ccccc21 [Compound 20, (2R,2S)-(9-Fluorenylmethoxycarbonylamino)-6-(4-bromobenzenesulfonylamino)-1-hexanamide]	23000
CC(C)CN(CCCC[C@H](NC(=O)OCC1c2ccccc2-c2ccccc21)C(=O)O)S(=O)(=O)c1ccc(Br)cc1 [Compound 21, Nα-(9-Fluorenylmethoxycarbonyl)-Nε-isobutyl-Nε-(4-bromobenzenesulfonyl)-L-lysine]	2000
O=C(N[C@H](CO)CCCCNS(=O)(=O)c1ccc(Br)cc1)OCC1c2ccccc2-c2ccccc21 [Compound 22, (2S)-(9-Fluorenylmethoxycarbonylamino)-6-(4-bromobenzenesulfonylamino)-1-hexanol]	> 6000
O=C(N[C@@H](CCCCNS(=O)(=O)c1ccc(Br)cc1)C(=O)O)c1cnc2cc(C(F)(F)F)ccc2c1O [Compound 23, Nα-(4-hydroxy-7-trifluoromethylquinoline-3-carbonyl)-Nε-(4-bromobenzenesulfonyl)-L-lysine]	> 50000
O=C(N[C@@H](CCCCNS(=O)(=O)c1ccccc1Br)C(=O)O)OCC1c2ccccc2-c2ccccc21 [Compound 24, Nε-(2-Bromobenzenesulfonyl)-Nα-(9-fluorenylmethoxycarbonyl)-L-lysine]	36000
CC(C)c1cc(C(C)C)c(S(=O)(=O)NCCCC[C@H](NC(=O)OCC2c3ccccc3-c3ccccc32)C(=O)O)c(C(C)C)c1 [Compound 25, Nε-(2,4,6-Triisopropylbenzenesulfonyl)-Nα-(9-fluorenylmethoxycarbonyl)-L-lysine]	> 3100
Cc1cc(C)c(S(=O)(=O)NCCCC[C@H](NC(=O)OCC2c3ccccc3-c3ccccc32)C(=O)O)c(C)c1 [Compound 27, Nε-(2,4,6-Trimethylbenzenesulfonyl)-Nα-(9-fluorenylmethoxycarbonyl)-L-lysine]	> 50000
O=C(N[C@@H](CCCCNS(=O)(=O)c1cccc2cccnc12)C(=O)O)OCC1c2ccccc2-c2ccccc21 [Compound 28, Nε-(8-Quinolinesulfonyl)-Nα-(9-fluorenylmethoxycarbonyl)-L-lysine]	15000
O=C(Cc1c[nH]c2ccccc12)N[C@@H](CCCCNS(=O)(=O)c1ccc(Br)cc1)C(=O)O [Compound 29, Nα-(3-Indoleacetyl)-Nε-(4-bromobenzenesulfonyl)-L-lysine]	10500
O=C(CC1c2ccccc2-c2ccccc21)N[C@@H](CCCCNS(=O)(=O)c1ccc(Br)cc1)C(=O)O [Compound 30, Nα-(9-Fluorenemethylcarbonyl)-Nε-(4-bromobenzenesulfonyl)-L-lysine]	71000
O=C(N[C@@H](CCCCNS(=O)(=O)c1ccc2ccccc2c1)C(=O)O)OCC1c2ccccc2-c2ccccc21 [Compound 32, Nε-(2-Naphthalenesulfonyl)-Nα-(9-fluorenylmethoxycarbonyl)-L-lysine]	10000
O=C(N[C@@H](CCCCNS(=O)(=O)Cc1ccccc1)C(=O)O)OCC1c2ccccc2-c2ccccc21 [Compound 33, Nε-Phenylmethylsulfonyl-Nα-(9-fluorenylmethoxycarbonyl)-L-lysine]	20000
O=C(N[C@@H](CCCCNS(=O)(=O)c1cccc(C(F)(F)F)c1)C(=O)O)OCC1c2ccccc2-c2ccccc21 [Compound 34, Nε-(3-Trifluoromethylbenzenesulfonyl)-Nα-(9-fluorenylmethoxycarbonyl)-L-lysine]	22000
CC1(C)[C@@H]2CC[C@@]1(CS(=O)(=O)NCCCC[C@H](NC(=O)OCC1c3ccccc3-c3ccccc31)C(=O)O)C(=O)C2 [Compound 35, Nε-(1S)-(10-Camphorsulfonyl)-Nα-(9-fluorenylmethoxycarbonyl)-L-lysine]	33000

Structure (SMILES)	Ki [nM]
O=C(N[C@@H](CCCCNS(=O)(=O)c1ccc(Br)cc1)C(=O)O)C(c1ccccc1)c1ccccc1 [Compound 36, Nα-(Diphenylacetyl)-Nε-(4-bromobenzenesulfonyl)-L-lysine]	24000
O=C(O)[C@H](CCCCNS(=O)(=O)c1ccc(Br)cc1)NC(=O)C(O)(c1ccccc1)c1ccccc1 [Compound 37, Nα-(Diphenylhydroxyacetyl)-Nε-(4-bromobenzenesulfonyl)-L-lysine]	54000
O=C(N[C@@H](CCCCNS(=O)(=O)c1ccc(Br)cc1)C(=O)O)C1c2ccccc2-c2ccccc21 [Compound 38, Nα-(9-Fluorenecarbonyl)-Nε-(4-bromobenzenesulfonyl)-L-lysine]	4700
Cc1ccc(S(=O)(=O)N(Cc2ccccc2)[C@@H](CCCCNC(=O)OCC2c3ccccc3-c3ccccc32)C(=O)O)cc1 [Compound 40, Nα-Benzyl-Nα-(4-methylbenzenesulfonyl)-Nε-(9-fluorenylmethoxycarbonyl)-L-lysine]	19.6
CC(C)CN(CCC[C@H](NC(=O)OCC1c2ccccc2-c2ccccc21)C(=O)O)S(=O)(=O)c1ccc(Br)cc1 [Compound 41, Nα-(9-Fluorenylmethoxycarbonyl)-Nδ-isobutyl-Nδ-(4-bromobenzenesulfonyl)-L-ornithine]	> 50000
Cc1cc(C)c(S(=O)(=O)N(CC(C)C)[C@@H](CCCCNC(=O)OCC2c3ccccc3-c3ccccc32)C(=O)O)c(C)c1 [Compound 42, Nα-Isobutyl-Nα-(2,4,6-trimethylbenzenesulfonyl)-Nε-(9-fluorenylmethoxycarbonyl)-L-lysine]	> 100
CC(C)CN([C@@H](CCCCNC(=O)OCC1c2ccccc2-c2ccccc21)C(=O)O)S(=O)(=O)c1ccc(N)cc1 [Compound 44, Nα-(4-Aminobenzenesulfonyl)-Nα-isobutyl-Nε-(9-fluorenylmethoxycarbonyl)-L-lysine]	2.1
CC(C)CN(C(=O)c1ccccc1)[C@@H](CCCCNC(=O)OCC1c2ccccc2-c2ccccc21)C(=O)O [Compound 46, Nα-Isobutyl-Nα-benzoyl-Nε-(9-fluorenylmethoxycarbonyl)-L-lysine]	> 100
O=C(N[C@@H](CCCCNS(=O)(=O)c1ccccc1)C(=O)O)OCC1c2ccccc2-c2ccccc21 [Compound 49, Nε-Benzenesulfonyl-Nα-(9-fluorenylmethoxycarbonyl)-L-lysine]	8900
Nc1ccc(S(=O)(=O)NCCCC[C@H](NC(=O)OCC2c3ccccc3-c3ccccc32)C(=O)O)cc1 [Compound 52, Nε-(4-Aminobenzenesulfonyl)-Nα-(9-fluorenylmethoxycarbonyl)-L-lysine]	6800
O=C(N[C@@H](CCCCNS(=O)(=O)c1ccc(Cl)cc1)C(=O)O)OCC1c2ccccc2-c2ccccc21 [Compound 53, Nε-(4-Chlorobenzenesulfonyl)-Nα-(9-fluorenylmethoxycarbonyl)-L-lysine]	4800
O=C(N[C@@H](CCCCNS(=O)(=O)c1cc(Cl)ccc1Cl)C(=O)O)OCC1c2ccccc2-c2ccccc21 [Compound 54, Nε-(2,5-Dichlorobenzenesulfonyl)-Nα-(9-fluorenylmethoxycarbonyl)-L-lysine]	> 6250
O=C(O)[C@H](CCCNS(=O)(=O)c1ccc(Br)cc1)NS(=O)(=O)c1ccc(Br)cc1 [Compound 57, Nα,Nδ-di-(4-Bromobenzenesulfonyl)-L-ornithine]	42400
O=C(O)[C@H](CCCN(Cc1ccc(F)cc1)S(=O)(=O)c1ccc(Br)cc1)NS(=O)(=O)c1ccc(Br)cc1 [Compound 59, Nα,Nδ-di-(4-Bromobenzenesulfonyl)-Nδ-(4-fluorobenzyl)-L-ornithine]	> 34900
O=C(O)[C@H](CCCCN(Cc1ccc(F)cc1)S(=O)(=O)c1ccc(Br)cc1)NS(=O)(=O)c1ccc(Br)cc1 [Compound 60, Nα,Nε-di-(4-bromobenzenesulfonyl)-Nε-(4-fluorobenzyl)-L-lysine]	> 50000
O=C(N[C@@H](CCCNS(=O)(=O)c1ccc([N+](=O)[O-])cc1)C(=O)O)OCC1c2ccccc2-c2ccccc21 [Compound 62, Nδ-(4-Nitrobenzenesulfonyl)-Nα-(9-fluorenylmethoxycarbonyl)-L-ornithine]	26200
O=C(N[C@@H](CCCCNS(=O)(=O)c1ccc(I)cc1)C(=O)O)OCC1c2ccccc2-c2ccccc21 [Compound 64, Nε-(4-Iodobenzenesulfonyl)-Nα-(9-fluorenylmethoxycarbonyl)-L-lysine]	19200
